The results in this text go back to PMC12367891, “Structure–metabolism relationships of 4-pentenyl synthetic cannabinoid receptor agonists using in vitro human hepatocyte incubations and high-resolution mass spectrometry” (Archives of Toxicology, 2025).

The data set concerns pooled human hepatocytes. As to the kind of experiment: Incubation with pooled human hepatocytes, metabolite identification by LC-QTOF-MS. It counts as in vitro ADME. The following applies: 5 µM, HHeps, up to 3 h. The protocol:
Incubations of the SCRAs with HHeps and subsequent metabolite identification were carried out as previously described in a published procedure, with slight modifications (Åstrand et al. [2019]; Stalberga et al. [2022]). To summarise, 5 µM of each SCRA was incubated with HHeps (100,000 cells) at 37 °C, 5% CO2 in a total volume of 100 μL of Williams E medium supplemented with L-glutamine and HEPES. Incubations were carried out in duplicate and quenched by the addition of 100 µL ice-cold acetonitrile at 0, 0.5, 1 and 3 h, after which the incubates were centrifuged at 1,100 × g for 15 min at 4 °C. The resulting supernatant was analysed by LC–QTOF-MS. On each day, negative controls (HHeps without drug) and degradation controls (drug without HHeps) were also incubated for 3 h.
Chromatographic separation was achieved using an Agilent 1290 Infinity ultra-high performance liquid chromatography (UHPLC) system (Agilent Technologies, Kista, Sweden); 4 µL supernatant was injected onto an Acquity HSS T3 column (150 × 2.1 mm, 1.8 μm) fitted with an Acquity VanGuard precolumn (Waters, Sollentuna, Sweden). Gradient elution was employed using 0.1% formic acid in water (A) and 0.1% formic acid in acetonitrile (B) mobile phases: 1% B (0–0.6 min); 1–20% B (0.6–0.7 min); 20–85% B (0.7–13 min); 85–95% B (13–15 min); 95% B (15–18 min); 95–1% B (18–18.1 min); 1% B (18.1–19 min), with a flow rate of 0.5 mL/min and column temperature of 60 °C. The UHPLC system was coupled to an Agilent 6550 iFunnel QTOF mass spectrometer (Agilent Technologies, Kista, Sweden) with a Dual Agilent Jet Stream electrospray ionisation (ESI) source. […]
To identify structure–metabolism relationships, the total proportion (%) that each type of biotransformation contributed to the summed abundance of metabolites (as measured by peak area) across the 0.5, 1 and 3 h incubations was determined. […]

For the molecule `C=CCCCN1C(=O)/C(=N\NC(=O)c2ccccc2)c2ccccc21` [BZO-4en-POXIZID], the “abundances of metabolites relative to the parent compound” value is “small relative to the parent compound”.
For `C=CCCCn1cc(C(=O)NC(C(=O)OC)C(C)(C)C)c2ccccc21` (stereo not drawn) [MDMB-4en-PICA], the most abundant metabolite result is “ester hydrolysis metabolite”.
The same measure, in the same setting: with `C=CCCCn1nc(C(=O)NC(C(=O)OC)C(C)(C)C)c2ccccc21` (stereo not drawn) [MDMB-4en-PINACA, methyl 3,3-dimethyl-2-{[1-(pent-4-en-1-yl)-1H-indazole-3-carbonyl]amino}butanoate] the entry was “ester hydrolysis metabolite”.
